Key:
S. aureus DSM 20231 = assay: Bliss interaction score (quartile over a dose matrix) (fitness difference); higher = more antagonism (negative = synergy)
Outline: (§1)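 Combination data were used to infer fitness under each single drug. Fitness is the OD595 at entry into stationary phase divided by the robust mean of the plate's no-drug wells, with a cap of 1. The Bliss score is the observed minus the expected product fitness, summarised by quartiles over technical, biological and donor/recipient replicates.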

B. subtilis 168 [1] = assay: as above
Outline: as §1

S. pneumoniae D39V [2] = assay: as above
Outline: as §1

S. aureus Newman [3] = assay: as above
Outline: as §1

B. subtilis 168 [4] = assay: fitness (endpoint OD595 vs no drug) (fraction); higher = more growth
Outline: (§2)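 Fitness was measured as bacterial growth in 384-well plates inoculated at OD595 0.01 (30 µl, or 55 µl for S. pneumoniae). Media were TSB, LB Lennox or CY, at 37 °C. OD595 was read every 30 min for 14 h and background-subtracted against the first reading. Fitness is OD595 at the transition into stationary phase divided by the robust mean of no-drug control wells, capped at 1.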

S. pneumoniae D39V [5] = assay: as above
Outline: as §2

S. aureus Newman [6] = assay: as above
Outline: as §2
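Wherever Bliss interaction score (quartile over a dose matrix) is given: first quartile when negative (synergy) and third quartile when positive (antagonism).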

O=C(O[C@@H]1Cc2c(O)cc(O)cc2O[C@@H]1c1cc(O)c(O)c(O)c1)c1cc(O)c(O)c(O)c1 [EGCG] + CN[C@@H]1[C@H](O[C@H]2[C@H](O[C@H]3[C@H](O)[C@@H](O)[C@H](N=C(N)N)[C@@H](O)[C@@H]3N=C(N)N)O[C@@H](C)[C@]2(O)C=O)O[C@@H](CO)[C@H](O)[C@H]1O [Streptomycin]
Conditions	Bliss interaction score
B. subtilis 168 [1]	0.303
S. aureus DSM 20231	0.136
S. aureus Newman [3]	0.0695
S. pneumoniae D39V [2]	0.0781

fitness
Conditions	first compound 6.25 µg/mL	first compound 12.5 µg/mL	first compound 25 µg/mL	first compound 50 µg/mL
B. subtilis 168 [4], partner 2 µg/mL	0.918	–	0.325	–
B. subtilis 168 [4], partner 4 µg/mL	0.823	0.718	0.299	–
B. subtilis 168 [4], partner 8 µg/mL	–	0.522	–	–
S. aureus Newman [6], partner 1 µg/mL	–	0.774	0.773	0.713
S. aureus Newman [6], partner 2 µg/mL	–	0.772	0.767	0.747
S. aureus Newman [6], partner 4 µg/mL	–	–	0.453	–
S. pneumoniae D39V [5], partner 2 µg/mL	–	0.887	0.933	0.937
S. pneumoniae D39V [5], partner 4 µg/mL	–	0.902	0.914	0.968
S. pneumoniae D39V [5], partner 8 µg/mL	–	0.881	0.943	0.981

S. pneumoniae D39V [5], partner 16 µg/mL, one replicate
Conditions	fitness
first compound 12.5 µg/mL	0.756
first compound 25 µg/mL	0.759
first compound 50 µg/mL	0.762

C/C(=C\C(=O)OCCCCCCCCC(=O)O)C[C@@H]1OC[C@H](C[C@@H]2O[C@H]2[C@@H](C)[C@H](C)O)[C@@H](O)[C@H]1O [Pseudomonic acid] + CC1=C\[C@@H](O)CC(=O)Cc2nc(co2)C(=O)N2CCC=C2C(=O)O[C@H](C(C)C)[C@H](C)/C=C/C(=O)NC\C=C\1 [Virginiamycin M1]
Conditions	Bliss interaction score
B. subtilis 168 [1]	-0.0497
S. aureus DSM 20231	-0.0077
S. aureus Newman [3]	-0.0218
S. pneumoniae D39V [2]	0.106

fitness, one replicate
Conditions	first compound 0.03 µg/mL	first compound 0.0313 µg/mL	first compound 0.06 µg/mL	first compound 0.0625 µg/mL	first compound 0.12 µg/mL	first compound 0.125 µg/mL
S. aureus Newman [6], partner 0.0625 µg/mL	–	0.0328	–	0.0216	–	0.0353
S. aureus Newman [6], partner 0.125 µg/mL	–	0.0308	–	0.0347	–	0.0594
S. aureus Newman [6], partner 0.25 µg/mL	–	0.0405	–	0.0352	–	0.0492
S. pneumoniae D39V [5], partner 0.15 µg/mL	≥ 1	–	≥ 1	–	0.866	–
S. pneumoniae D39V [5], partner 0.3 µg/mL	≥ 1	–	≥ 1	–	0.865	–

fitness, S. pneumoniae D39V [5]
Conditions	first compound 0.03 µg/mL	first compound 0.06 µg/mL	first compound 0.12 µg/mL
partner 0.5 µg/mL	0.924	0.856	0.629
partner 1 µg/mL	0.914	0.798	0.63
partner 2 µg/mL	0.952	0.844	0.647

C/C(=C\C(=O)OCCCCCCCCC(=O)O)C[C@@H]1OC[C@H](C[C@@H]2O[C@H]2[C@@H](C)[C@H](C)O)[C@@H](O)[C@H]1O [Pseudomonic acid] + CN1C2=CC=CC=C2N=C3C1=CC=CC3=O [Pyocyanin]
Conditions	Bliss interaction score
B. subtilis 168 [1]	-0.0558
S. aureus DSM 20231	0.0163
S. aureus Newman [3]	0.0185
S. pneumoniae D39V [2]	-0.0764

fitness, S. pneumoniae D39V [5]
Conditions	first compound 0.03 µg/mL	first compound 0.06 µg/mL	first compound 0.12 µg/mL
partner 0.325 µg/mL	0.955	0.849	0.611
partner 0.65 µg/mL	0.932	0.843	0.554
partner 1.3 µg/mL	–	0.55	0.395

fitness, S. aureus Newman [6], one replicate
Conditions	first compound 0.0313 µg/mL	first compound 0.0625 µg/mL	first compound 0.125 µg/mL
partner 1.25 µg/mL	0.0664	0.0399	0.0453
partner 2.5 µg/mL	0.0672	0.0381	0.0514
partner 5 µg/mL	0.0481	0.0417	0.057

C/C(=C\C(=O)OCCCCCCCCC(=O)O)C[C@@H]1OC[C@H](C[C@@H]2O[C@H]2[C@@H](C)[C@H](C)O)[C@@H](O)[C@H]1O [Pseudomonic acid] + CN(C)c1cc(NC(=O)CNC(C)(C)C)c(O)c2c1C[C@H]1C[C@H]3[C@H](N(C)C)C(O)=C(C(N)=O)C(=O)[C@@]3(O)C(O)=C1C2=O [Tigecycline]
Conditions	Bliss interaction score
B. subtilis 168 [1]	0.07
S. aureus DSM 20231	0.006
S. aureus Newman [3]	-0.0182
S. pneumoniae D39V [2]	-0.124

fitness, S. pneumoniae D39V [5]
Conditions	first compound 0.03 µg/mL	first compound 0.06 µg/mL	first compound 0.12 µg/mL
partner 0.65 µg/mL	0.872	0.739	0.575
partner 1.3 µg/mL	0.923	0.747	0.612
partner 2.6 µg/mL	0.879	0.752	0.59

fitness, S. aureus Newman [6], one replicate
Conditions	first compound 0.0313 µg/mL	first compound 0.0625 µg/mL	first compound 0.125 µg/mL
partner 0.039 µg/mL	0.0303	0.0332	0.029
partner 0.078 µg/mL	0.0326	0.0257	0.0238
partner 0.156 µg/mL	0.0698	0.0522	0.0728

C/C(=C\C(=O)OCCCCCCCCC(=O)O)C[C@@H]1OC[C@H](C[C@@H]2O[C@H]2[C@@H](C)[C@H](C)O)[C@@H](O)[C@H]1O [Pseudomonic acid] + CN(N=O)C(=O)N[C@@H](C=O)[C@@H](O)[C@H](O)[C@H](O)CO [Streptozotocin]
Conditions	Bliss interaction score
B. subtilis 168 [1]	0.105
S. aureus DSM 20231	-0.011
S. aureus Newman [3]	-0.0211
S. pneumoniae D39V [2]	-0.0598

fitness, S. pneumoniae D39V [5]
Conditions	first compound 0.03 µg/mL	first compound 0.06 µg/mL	first compound 0.12 µg/mL
partner 1.2 µg/mL	0.834	0.722	0.533
partner 2.4 µg/mL	0.885	0.718	0.538
partner 4.8 µg/mL	0.874	0.752	0.56

fitness, S. aureus Newman [6], one replicate
Conditions	first compound 0.0313 µg/mL	first compound 0.0625 µg/mL	first compound 0.125 µg/mL
partner 0.15 µg/mL	0.0359	0.0417	0.0264
partner 0.3 µg/mL	0.0204	0.0023	0.0089
partner 0.6 µg/mL	0.0135	0.0039	0.0091
